Among the data in patent publication US8669247B2, “2,5-disubstituted arylsulfonamide CCR3 antagonists” (Axikin Pharmaceuticals, Inc., priority 2009, dated 2014) are Ki and melting point values, retold here.

Where a name gives a salt, the structure may show the parent alone.

The first series concerns the target T1, CCR3 receptor (UniProt P51677).
T1 sequence (P51677 1-355): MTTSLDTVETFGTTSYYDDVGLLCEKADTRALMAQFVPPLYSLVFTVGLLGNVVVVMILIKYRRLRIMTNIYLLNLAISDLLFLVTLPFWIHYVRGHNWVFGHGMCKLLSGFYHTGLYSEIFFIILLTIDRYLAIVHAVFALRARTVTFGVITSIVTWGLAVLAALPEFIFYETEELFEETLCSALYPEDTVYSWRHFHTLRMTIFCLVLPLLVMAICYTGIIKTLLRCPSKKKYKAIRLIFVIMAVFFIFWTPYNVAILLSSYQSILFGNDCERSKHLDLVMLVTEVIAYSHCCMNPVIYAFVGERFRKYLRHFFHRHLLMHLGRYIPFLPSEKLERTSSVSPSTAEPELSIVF
In words: CCR3 Receptor Binding Assay ([125I]-labeled human eotaxin/CCL11 displacement on cells). The following applies: Free (free form of the compound). Here is the method: Cells were washed once with PBS and resuspended in a binding buffer (25 mM HEPES pH 7.6, 5 mM MgCl2, 1 mM CaCl2, 0.5% BSA, 0.1% NaN3), […] of cell suspension (2×10^5 cells/well) and 0.1 nM [^125I]-labeled human eotaxin/CCL11 (2000 Ci/mmol specific activity) were mixed in a 96-well U-bottom polypropylene plate, and incubated for 60 min at room temperature for the binding reaction. The cell suspension was then transferred to a filtration plate (#MAFB, Millipore), and washed 3 times with the binding buffer containing 0.5 M NaCl, scintillant added, and the radioactivity was counted on a TopCount (Packard). For the determination of non-specific binding, the cell suspension and [^125I]-labeled human eotaxin/CCL11 were incubated in the presence of 500 nM of unlabeled human eotaxin/CCL11. See, lino et al., “Molecular cloning and functional characterization of cynomolgus monkey (Macaca fascicularis) CC chemokine receptor, CCR3,” Cytokine 2002, 19, 276-286.
In turn, `CC1CCN(S(=O)(=O)c2cc(C#N)ccc2Oc2cc(Cl)ccc2Cl)CC1` [Compound 87, 4-(2,5-Dichlorophenoxy)-3-(4-methylpiperidin-1-ylsulfonyl)benzonitrile] came in with a Ki greater than 5 nM. Same read-out and setting: the same measure for `CC(C)N1CCN(S(=O)(=O)c2cc(C#N)ccc2Oc2cc(Cl)ccc2Cl)CC1` [Compound 88, 4-(2,5-Dichlorophenoxy)-3-(4-isopropylpiperazin-1-ylsulfonyl)benzonitrile]: no more than 10 nM. `CCC(CC)N1CCN(S(=O)(=O)c2cc(C#N)ccc2Oc2cc(Cl)ccc2Cl)CC1` [Compound 89, 4-(2,5-Dichlorophenoxy)-3-(4-(pentan-3-yl)piperazin-1-ylsulfonyl)-benzonitrile]: the Ki was 10 to 25 nM.

`CCCC(C)N1CCN(S(=O)(=O)c2cc(C#N)ccc2Oc2cc(Cl)ccc2Cl)CC1` (stereo not drawn) [Compound 90, 4-(2,5-Dichlorophenoxy)-3-(4-(pentan-2-yl)piperazin-1-ylsulfonyl)-benzonitrile] returned a Ki of 10 to 25 nM.

For `N#Cc1ccc(Oc2cc(Cl)ccc2Cl)c(S(=O)(=O)N2CCN(C3CCCCCC3)CC2)c1` [Compound 91, 3-(4-Cycloheptylpiperazin-1-ylsulfonyl)-4-(2,5-dichlorophenoxy)benzonitrile], the inhibitory constant (Ki) is 10 to 25 nM. Still for that read-out and setting: the value for `CN1CCCN(S(=O)(=O)c2cc(C#N)ccc2Oc2cc(Cl)ccc2Cl)CC1` [Compound 92, 4-(2,5-Dichlorophenoxy)-3-(4-methyl-1,4-diazepan-1-ylsulfonyl)benzonitrile] was 25 to 100 nM; that for `CCCCc1nc(Cl)c2n1C(=O)N(C1CCN(S(=O)(=O)c3cc(C#N)ccc3Oc3cc(Cl)ccc3Cl)CC1)C2` [Compound 93, 3-(4-(5-Butyl-7-chloro-3-oxo-1H-imidazo[1,5-c]imidazol-2(3H)-yl)piperidin-1-ylsulfonyl)-4-(2,5-dichlorophenoxy)benzonitrile] was greater than 5 nM; that for `N#Cc1ccc(Oc2cc(Cl)ccc2Cl)c(S(=O)(=O)NCCN2CCOCC2)c1` [Compound 95, 5-Cyano-2-(2,5-dichlorophenoxy)-N-(2-morpholinoethyl)benzenesulfonamide] was 100 to 500 nM.

`CN1CCN(S(=O)(=O)c2cc(C#N)ccc2Oc2cc(Cl)ccc2Cl)CC1` [Compound 96, 4-(2,5-Dichlorophenoxy)-3-(4-methylpiperazin-1-ylsulfonyl)benzonitrile] displayed an inhibition constant Ki of 25 to 100 nM. `CC(C)(O)C1CCN(S(=O)(=O)c2cc(C#N)ccc2Oc2cc(Cl)ccc2Cl)CC1` [Compound 97, 4-(2,5-Dichlorophenoxy)-3-(4-(2-hydroxypropan-2-yl)piperidin-1-ylsulfonyl)benzonitrile] displayed an inhibition constant Ki of 100 to 500 nM. Compound `CCN1CCN(S(=O)(=O)c2cc([N+](=O)[O-])ccc2Sc2cc(Cl)ccc2Cl)CC1` [Compound 99] came in with a Ki of 10 to 25 nM. Same read-out and setting: the same measure for `CCN1CCN(S(=O)(=O)c2cc([N+](=O)[O-])ccc2Oc2cc(Cl)ccc2Cl)CC1` [Compound 100, 1-(2-(2,5-Dichlorophenoxy)-5-nitrophenylsulfonyl)-4-ethylpiperazine]: no more than 10 nM. Still for that read-out and setting: the value for `CCN1CCN(S(=O)(=O)c2cc([N+](=O)[O-])ccc2Sc2cc(C)ccc2C)CC1` [Compound 101, 1-(2-(2,5-Dimethylphenylthio)-5-nitrophenylsulfonyl)-4-ethylpiperazine] was greater than 5 nM; that for `CCN1CCN(S(=O)(=O)c2cc([N+](=O)[O-])ccc2Oc2cc(C)ccc2C)CC1` [Compound 102, 1-(2-(2,5-Dimethylphenoxy)-5-nitrophenylsulfonyl)-4-ethylpiperazine] was greater than 5 nM; that for `CC1CN(S(=O)(=O)c2cc([N+](=O)[O-])ccc2Sc2cc(Cl)ccc2Cl)CC(C)N1` (stereo not drawn) [Compound 103, 1-(2-(2,5-Dichlorophenylthio)-5-nitrophenylsulfonyl)-3,5-dimethylpiperazine] was greater than 5 nM. On the same count and under the same terms, the same measure for `Cc1ccc(C)c(Sc2ccc([N+](=O)[O-])cc2S(=O)(=O)N2CC(C)NC(C)C2)c1` (stereo not drawn) [Compound 105, 1-(2-(2,5-Dimethylphenylthio)-5-nitrophenylsulfonyl)-3,5-dimethylpiperazine]: greater than 5 nM.

Take `Cc1ccc(C)c(Oc2ccc([N+](=O)[O-])cc2S(=O)(=O)N2CC(C)NC(C)C2)c1` (stereo not drawn) [Compound 106, 1-(2-(2,5-Dimethylphenoxy)-5-nitrophenylsulfonyl)-3,5-dimethylpiperazine]: the Ki is greater than 5 nM. On the same count and under the same terms, the value for `CC(C)N1CCN(S(=O)(=O)c2cc([N+](=O)[O-])ccc2Oc2cc(Cl)ccc2Cl)CC1` [Compound 107, 1-(2-(2,5-Dichlorophenoxy)-5-nitrophenylsulfonyl)-4-isopropylpiperazine] was no more than 10 nM; that for `CC(C)N1CCN(S(=O)(=O)c2cc([N+](=O)[O-])ccc2Sc2cc(Cl)ccc2Cl)CC1` [Compound 108, 1-(2-(2,5-Dichlorophenylthio)-5-nitrophenylsulfonyl)-4-isopropylpiperazine] was no more than 10 nM.

`Cc1ccc(C)c(Oc2ccc([N+](=O)[O-])cc2S(=O)(=O)N2CCN(C(C)C)CC2)c1` [Compound 109, 1-(2-(2,5-Dimethylphenoxy)-5-nitrophenylsulfonyl)-4-isopropylpiperazine]: the Ki is greater than 5 nM. On the same count and under the same terms, the value for `O=[N+]([O-])c1ccc(Sc2cc(Cl)ccc2Cl)c(S(=O)(=O)N2CCN(C3CCCCC3)CC2)c1` [Compound 118, 1-Cyclohexyl-4-(2-(2,5-dichlorophenylthio)-5-nitrophenylsulfonyl)piperazine] was 10 to 25 nM. Take `O=[N+]([O-])c1ccc(Oc2cc(Cl)ccc2Cl)c(S(=O)(=O)N2CCN(C3CCCCC3)CC2)c1` [Compound 119, 1-Cyclohexyl-4-(2-(2,5-dichlorophenoxy)-5-nitrophenylsulfonyl)piperazine]: the Ki was no more than 10 nM.

`Cc1ccc(C)c(Sc2ccc([N+](=O)[O-])cc2S(=O)(=O)N2CCN(C3CCCCC3)CC2)c1` [Compound 120, 1-Cyclohexyl-4-(2-(2,5-dimethylphenylthio)-5-nitrophenylsulfonyl)piperazine] yielded a Ki greater than 5 nM.

Take `Cc1ccc(C)c(Oc2ccc([N+](=O)[O-])cc2S(=O)(=O)N2CCN(C3CCCCC3)CC2)c1` [Compound 121, 1-Cyclohexyl-4-(2-(2,5-dimethylphenoxy)-5-nitrophenylsulfonyl)piperazine]: the inhibition constant (Ki) was no more than 10 nM. Compound `O=C1CN(S(=O)(=O)c2cc([N+](=O)[O-])ccc2Sc2cc(Cl)ccc2Cl)CCN1` [Compound 124, 4-(2-(2,5-Dichlorophenylthio)-5-nitrophenylsulfonyl)piperazin-2-one] registered a Ki of no more than 10 nM. For `Cc1ccc(C)c(Sc2ccc([N+](=O)[O-])cc2S(=O)(=O)N2CCNC(=O)C2)c1` [Compound 125, 4-(2-(2,5-Dimethylphenylthio)-5-nitrophenylsulfonyl)piperazin-2-one], the Ki is greater than 5 nM. In the case of `O=C1CN(S(=O)(=O)c2cc([N+](=O)[O-])ccc2Oc2cc(Cl)ccc2Cl)CCN1` [Compound 126, 4-(2-(2,5-Dichlorophenoxy)-5-nitrophenylsulfonyl)piperazin-2-one], the inhibition constant (Ki) was 10 to 25 nM. On to `O=[N+]([O-])c1ccc(Sc2cc(Cl)ccc2Cl)c(S(=O)(=O)N2CCCNCC2)c1` [Compound 127, 1-(2-(2,5-Dichlorophenylthio)-5-nitrophenylsulfonyl)-1,4-diazepane], for which the Ki was greater than 5 nM.

On to `CN1CCN(S(=O)(=O)c2cc([N+](=O)[O-])ccc2Sc2cc(Cl)ccc2Cl)CC1` [Compound 133, 1-(2-(2,5-Dichlorophenylthio)-5-nitrophenylsulfonyl)-4-methylpiperazine], for which the Ki is greater than 5 nM. On to `Cc1ccc(C)c(Sc2ccc(C#N)cc2S(=O)(=O)N2CCS(=O)(=O)CC2)c1` [Compound 140], for which the Ki is greater than 5 nM. Still for that read-out and setting: the value for `O=[N+]([O-])c1ccc(Oc2cc(Cl)ccc2Cl)c(S(=O)(=O)N2CCNCC2)c1` [Compound 147, 1-(2-(2,5-Dichlorophenoxy)-5-nitrophenylsulfonyl)piperazine] was greater than 5 nM.

Still in this series, the particulars now being: HCl: hydrochloric acid salt of the corresponding compound.
For the compound `CC(C)N1CCCN(S(=O)(=O)c2cc(C#N)ccc2Oc2cc(Cl)ccc2Cl)CC1` [Compound 98, 4-(2,5-Dichlorophenoxy)-3-(4-isopropyl-1,4-diazepan-1-ylsulfonyl)benzonitrile], the Ki lay within 25 to 100 nM. Still for that read-out and setting: the same measure for `O=[N+]([O-])c1ccc(Oc2cc(Cl)ccc2Cl)c(S(=O)(=O)N2CCNCC2)c1` [Compound 147, 1-(2-(2,5-Dichlorophenoxy)-5-nitrophenylsulfonyl)piperazine]: 25 to 100 nM. On the same count and under the same terms, the value for `Cc1ccc(C)c(Oc2ccc([N+](=O)[O-])cc2S(=O)(=O)N2CCNCC2)c1` [Compound 148, 1-(2-(2,5-Dimethylphenoxy)-5-nitrophenylsulfonyl)piperazine] was greater than 5 nM.

Tested on in another series: not given
Assay: not given
Conditions: not given
In turn, `N#Cc1ccc(Oc2cc(F)ccc2F)c(S(=O)(=O)N2CCNCC2)c1` (as salt: hydrochloride) [Compound 52, 4-(2,5-Difluorophenoxy)-3-(piperazin-1-ylsulfonyl)benzonitrile] displayed a melting point of 125 to 143 °C. On the same count and under the same terms, the same measure for `CC1CN(S(=O)(=O)c2cc(C#N)ccc2Oc2cc(F)ccc2F)CC(C)N1` (stereo not drawn) (as salt: hydrochloride) [Compound 53, 4-(2,5-Difluorophenoxy)-3-(3,5-dimethylpiperazin-1-ylsulfonyl)benzonitrile]: 157 to 159 °C.

The Ki is the dissociation constant of the complex between target and ligand, obtained from inhibition or displacement. In general, melting point refers to the temperature of the solid-liquid transition.
